Measured values published in PMC10120462, “Styrylquinazoline derivatives as ABL inhibitors selective for different DFG orientations” (Journal of Enzyme Inhibition and Medicinal Chemistry, 2023).
Entries after “also recorded” stand apart in the source; their conditions may differ.

What was measured:
Fyn A = molecular target: T1, Fyn A (Homo sapiens, UniProt P06241); assay: Tyrosine kinase assay (Kinase Selectivity System TK-2, ADP-Glo); assay type: biochemical; conditions: 1 h incubation, mean ± SD of four experiments
T1 construct: purchased Promega
T1 sequence (P06241 whole entry): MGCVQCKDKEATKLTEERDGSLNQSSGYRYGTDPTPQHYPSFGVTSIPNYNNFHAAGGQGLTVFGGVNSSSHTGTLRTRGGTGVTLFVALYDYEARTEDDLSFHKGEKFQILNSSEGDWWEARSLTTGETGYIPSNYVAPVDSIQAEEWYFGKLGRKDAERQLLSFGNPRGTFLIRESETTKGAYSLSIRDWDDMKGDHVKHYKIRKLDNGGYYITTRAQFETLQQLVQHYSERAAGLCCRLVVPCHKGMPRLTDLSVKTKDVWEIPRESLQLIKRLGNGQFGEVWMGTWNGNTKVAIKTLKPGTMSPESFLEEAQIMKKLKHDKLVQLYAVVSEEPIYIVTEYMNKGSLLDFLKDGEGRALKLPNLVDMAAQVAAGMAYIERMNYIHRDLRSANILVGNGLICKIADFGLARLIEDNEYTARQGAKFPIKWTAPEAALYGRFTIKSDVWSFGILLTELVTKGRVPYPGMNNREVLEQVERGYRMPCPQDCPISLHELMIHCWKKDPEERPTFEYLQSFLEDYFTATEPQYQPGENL
Method in brief: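 Full-length, unphosphorylated non-receptor tyrosine kinases with regulatory domains, supplemented with ATP and incubated 1 h with peptide substrate. ADP formation read by ADP-Glo luminescence. Values are percent kinase inhibition from at least four experiments.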

ABL = molecular target: T2, ABL (Homo sapiens, UniProt P00519); assay: Pharmacological synergy on the ABL enzyme model (ABL1 Kinase Assay); assay type: biochemical; conditions: Chou-Talalay method
T2 construct: purchased Promega
T2 sequence (P00519 whole entry): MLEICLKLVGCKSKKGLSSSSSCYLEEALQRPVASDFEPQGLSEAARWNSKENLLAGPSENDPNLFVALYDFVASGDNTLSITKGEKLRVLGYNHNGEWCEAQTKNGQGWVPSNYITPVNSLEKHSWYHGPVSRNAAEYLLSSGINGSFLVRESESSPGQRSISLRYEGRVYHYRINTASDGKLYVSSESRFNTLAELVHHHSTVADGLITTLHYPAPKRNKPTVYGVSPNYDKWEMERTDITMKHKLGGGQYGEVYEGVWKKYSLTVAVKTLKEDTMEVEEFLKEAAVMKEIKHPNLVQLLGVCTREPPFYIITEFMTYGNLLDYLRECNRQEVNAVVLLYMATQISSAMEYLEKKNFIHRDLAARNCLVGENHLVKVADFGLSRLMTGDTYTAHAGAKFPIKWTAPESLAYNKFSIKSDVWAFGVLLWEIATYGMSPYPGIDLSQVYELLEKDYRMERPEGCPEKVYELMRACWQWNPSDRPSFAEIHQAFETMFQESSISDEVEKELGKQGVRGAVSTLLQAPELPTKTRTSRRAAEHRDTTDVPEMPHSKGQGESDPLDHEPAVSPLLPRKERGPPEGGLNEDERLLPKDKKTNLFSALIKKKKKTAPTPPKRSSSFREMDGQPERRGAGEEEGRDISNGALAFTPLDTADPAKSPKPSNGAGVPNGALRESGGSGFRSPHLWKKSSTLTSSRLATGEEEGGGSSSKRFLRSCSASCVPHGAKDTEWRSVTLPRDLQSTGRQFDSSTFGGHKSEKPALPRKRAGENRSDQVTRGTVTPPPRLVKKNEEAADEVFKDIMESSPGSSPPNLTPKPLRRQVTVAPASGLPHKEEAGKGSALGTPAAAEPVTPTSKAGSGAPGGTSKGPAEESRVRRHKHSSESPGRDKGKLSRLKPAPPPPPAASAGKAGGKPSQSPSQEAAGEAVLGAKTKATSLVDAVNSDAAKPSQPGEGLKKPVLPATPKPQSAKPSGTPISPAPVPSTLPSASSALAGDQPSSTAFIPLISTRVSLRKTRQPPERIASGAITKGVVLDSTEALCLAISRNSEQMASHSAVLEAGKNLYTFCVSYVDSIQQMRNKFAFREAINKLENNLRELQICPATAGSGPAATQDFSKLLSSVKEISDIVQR
Protocol: We selected the aforementioned reference inhibitors based on their different modes of interaction with the kinases. […] Thus, the results of this experiment may allow identification of the site where the IS1 inhibitor binds to ABL kinase.
Synergy experiments were performed analogously to our previous reports[36]^,[65]. Synergy was calculated by the Chou-Talay method (CompuSyn software)[66]^,[67]. Experiments were performed at least three times.

inhibition at 0.5 µM (Fyn A) [%]	Effect on ABL inhibition of IS1 in combination with dasatinib (ABL)	Effect on ABL inhibition of IS1 in combination with imatinib (ABL)	SMILES	Effect on ABL inhibition of IS1 in combination with GNF-2 (ABL)
90.4 ± 9.9	virtually no effect	synergistic effect	COc1ccccc1/C=C/c1nc(Sc2ccccc2Cl)c2ccccc2n1 [IS1, 2-[(E)-2–(2-methoxyphenyl)ethenyl]-4–(2-chlorophenylthio)quinazoline]	significantly attenuated inhibition; also recorded: antagonistic outcome
0	–	–	COc1ccccc1/C=C/c1nc(Sc2cccc(O)c2)c2ccccc2n1 [IS8, 3-{2-[(E)-2–(2-methoxyphenyl)ethenyl]quinazolin-4-ylthio}phenol]	–
21.5 ± 5.71	–	–	COc1ccccc1/C=C/c1nc(Sc2ccc3c(c2)OCO3)c2ccccc2n1 [IS10, 5-{2-[(E)-2–(2-methoxyphenyl)ethenyl]quinazolin-4-ylthio}-2H-1,3-benzodioxole]	–

SMILES	inhibition at 0.5 µM (Fyn A) [%]	Effect on ABL inhibition of IS1 in combination with dasatinib (ABL)	Effect on ABL inhibition of IS1 in combination with imatinib (ABL)	Effect on ABL inhibition of IS1 in combination with GNF-2 (ABL)
NC(=O)c1cccc(-c2cc(Nc3ccc(OC(F)(F)F)cc3)ncn2)c1 [GNF-2, reference compound]	0	–	–	–
